Measured values taken from ChEMBL document CHEMBL5131383, “Structure-based design, synthesis, and evaluation of inhibitors with high selectivity for PARP-1 over PARP-2” (Eur J Med Chem, 2022).
The source made the active and inactive calls. The rule behind the calls is not given here.

Assays:
[1] = target: T1, Poly [ADP-ribose] polymerase 2 (Homo sapiens, UniProt Q9UGN5); experiment: Inhibition of human PARP2 using NAD+ as substrate at 5 nM incubated for 1 hr by ELISA relative to control
[2] = target: T2, Poly [ADP-ribose] polymerase 1 (Homo sapiens, UniProt P09874); experiment: Inhibition of human PARP1 using NAD+ as substrate at 5 nM incubated for 1 hr by ELISA relative to control
[3] = species on record: Homo sapiens; experiment: Selectivity index, ratio of IC50 for human PARP2 to IC50 for human PARP1
[4] = target: T1, Poly [ADP-ribose] polymerase 2; experiment: Inhibition of human PARP2 using NAD+ as substrate incubated for 1 hr by ELISA
[5] = target: T2, Poly [ADP-ribose] polymerase 1; experiment: Inhibition of human PARP1 using NAD+ as substrate incubated for 1 hr by ELISA
[6] = system: MX1; experiment: Antiproliferative activity against human BRCA mutant MX1 cells assessed as inhibition of cell growth incubated for 48 hrs by MTT assay; assay type: functional, cell-based; details: MX1, 48 h
[7] = system: A549; experiment: Antiproliferative activity against human A549 cells assessed as inhibition of cell growth incubated for 48 hrs by MTT assay; assay type: functional, cell-based; details: A549, 48 h
[8] = system: Mus musculus; experiment: In vivo inhibition of PARP1 in athymic BALB/c mouse xenografted with human BRCA1 mutant MDA-MB-436 cells assessed as prevention of PAR formation 50 mg/kg/day, po measured after 48 hrs by Western blot analysis; assay type: functional, organism-based
[9] = system: MCF7; experiment: Antiproliferative activity against human MCF7 cells assessed as inhibition of cell growth incubated for 48 hrs by MTT assay; assay type: functional, cell-based; details: MCF7, 48 h
[10] = Toxicity athymic BALB/c mouse xenografted with human BRCA1 mutant MDA-MB-436 cells assessed as change in body weight at 50 mg/kg/day, po administered for 18 days and measured twice weekly; assay type: organism-based; details: in vivo, 432 h, time 18 day
[11] = system: MDA-MB-436; experiment: Antitumor activity against human BRCA1 mutant MDA-MB-436 cells xenografted athymic BALB/c mouse assessed as inhibition of tumor volume at 50 mg/kg/day, po administered for 18 days and measured twice weekly; assay type: functional, organism-based; details: time 18.0 day
[12] = system: A549; experiment: […] human A549 cells assessed as reduction in PAR level measured after 48 hrs by Western blot analysis; assay type: functional, cell-based; details: dose 2.5-10 µM, DDE = dose-dependent effect

T1 sequence (Q9UGN5 whole entry): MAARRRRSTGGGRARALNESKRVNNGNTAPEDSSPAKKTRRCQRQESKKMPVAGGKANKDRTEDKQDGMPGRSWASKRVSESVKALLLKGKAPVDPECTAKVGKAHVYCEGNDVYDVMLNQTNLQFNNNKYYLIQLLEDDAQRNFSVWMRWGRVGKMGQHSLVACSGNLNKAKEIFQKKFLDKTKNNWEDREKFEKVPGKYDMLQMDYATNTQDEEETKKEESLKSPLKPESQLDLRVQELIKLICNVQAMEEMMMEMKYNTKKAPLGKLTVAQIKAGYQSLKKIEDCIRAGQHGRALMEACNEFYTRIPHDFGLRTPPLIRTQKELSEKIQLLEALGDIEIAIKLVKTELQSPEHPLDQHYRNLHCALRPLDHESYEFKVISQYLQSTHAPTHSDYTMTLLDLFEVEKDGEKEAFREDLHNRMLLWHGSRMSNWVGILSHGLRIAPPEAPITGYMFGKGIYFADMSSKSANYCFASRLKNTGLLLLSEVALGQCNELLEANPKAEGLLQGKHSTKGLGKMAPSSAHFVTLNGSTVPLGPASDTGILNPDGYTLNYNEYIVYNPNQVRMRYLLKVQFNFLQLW
T2 sequence (P09874 whole entry): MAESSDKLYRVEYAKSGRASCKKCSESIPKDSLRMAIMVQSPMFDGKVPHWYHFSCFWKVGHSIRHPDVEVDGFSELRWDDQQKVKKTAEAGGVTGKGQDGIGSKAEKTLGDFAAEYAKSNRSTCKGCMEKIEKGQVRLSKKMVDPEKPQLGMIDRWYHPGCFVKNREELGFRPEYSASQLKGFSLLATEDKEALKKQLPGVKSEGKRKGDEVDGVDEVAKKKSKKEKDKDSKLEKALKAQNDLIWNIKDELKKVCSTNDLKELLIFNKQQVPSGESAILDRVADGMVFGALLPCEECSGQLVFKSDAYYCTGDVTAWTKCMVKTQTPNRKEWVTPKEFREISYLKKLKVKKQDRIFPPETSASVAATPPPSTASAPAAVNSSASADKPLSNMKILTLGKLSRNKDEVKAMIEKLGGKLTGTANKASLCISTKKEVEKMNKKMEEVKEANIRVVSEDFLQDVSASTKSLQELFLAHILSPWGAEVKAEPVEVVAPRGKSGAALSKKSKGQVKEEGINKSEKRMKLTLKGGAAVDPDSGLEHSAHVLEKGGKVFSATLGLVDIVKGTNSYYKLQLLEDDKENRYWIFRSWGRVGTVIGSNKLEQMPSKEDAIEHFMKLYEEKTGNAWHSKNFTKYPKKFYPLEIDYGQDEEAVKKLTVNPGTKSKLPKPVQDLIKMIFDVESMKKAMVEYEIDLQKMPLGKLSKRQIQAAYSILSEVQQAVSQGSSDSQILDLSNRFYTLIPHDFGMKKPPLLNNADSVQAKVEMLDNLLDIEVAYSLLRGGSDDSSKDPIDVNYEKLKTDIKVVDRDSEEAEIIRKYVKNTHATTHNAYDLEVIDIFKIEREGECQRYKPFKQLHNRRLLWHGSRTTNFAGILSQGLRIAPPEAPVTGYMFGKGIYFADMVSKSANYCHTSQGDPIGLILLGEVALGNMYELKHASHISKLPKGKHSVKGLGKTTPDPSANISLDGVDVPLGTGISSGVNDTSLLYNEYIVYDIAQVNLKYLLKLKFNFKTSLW

| SMILES | inhibition [1] [%] | inhibition [2] [%] | also measured |
| --- | --- | --- | --- |
| CC(C)N1CCN(Cc2cccc(-c3[nH]c4cc(F)cc5c4c3CCNC5=O)c2)CC1 | 29 | 56.6 |  |
| O=C1NCCc2c(-c3ccc(CN4CCN(CCO)CC4)cc3)[nH]c3cc(F)cc1c23 | 25.1 | 84.5 | Ratio IC50 [3]: 4.3; IC50 [4]: 0.00668 µM; IC50 [5]: 0.00154 µM |
| NC1CCCN(Cc2cccc(-c3[nH]c4cc(F)cc5c4c3CCNC5=O)c2)C1 (stereo unspecified) | 13.1 | 64.8 |  |
| O=C1NCCc2c(-c3ccc(N4CCOCC4)cc3)[nH]c3cc(F)cc1c23 | 54.2 | 88.9 |  |
| COc1ccc(-c2[nH]c3cc(F)cc4c3c2CCNC4=O)cc1 | 49.4 | 82.8 |  |
| CNCc1ccc(-c2[nH]c3cc(F)cc4c3c2CCNC4=O)cc1 [RUCAPARIB] | 77.6 | 98 | IC50 [6]: 6.51 µM; IC50 [7]: 32.2 µM; inhibition [8]: Active; IC50 [9]: 6.61 µM |
| CC1(NC(=O)OC(C)(C)C)CCN(Cc2ccc(-c3[nH]c4cc(F)cc5c4c3CCNC5=O)cc2)CC1 | 40.5 | 87 |  |
| O=C1NCCc2c(-c3cccc(CN4CCN(C(=O)C5CC5)CC4)c3)[nH]c3cc(F)cc1c23 | 20.7 | 46.1 |  |
| NC1CCN(Cc2ccc(-c3[nH]c4cc(F)cc5c4c3CCNC5=O)cc2)CC1 | 63.8 | 95.7 | IC50 [6]: 65.4 µM; IC50 [7]: 85.9 µM; IC50 [9]: 59.5 µM; IC50 [4]: 0.00421 µM; IC50 [5]: 0.00041 µM |
| CN1CCN(Cc2cccc(-c3[nH]c4cc(F)cc5c4c3CCNC5=O)c2)CC1 | 29 | 61.2 |  |
| CC1(NC(=O)OC(C)(C)C)CCN(Cc2cccc(-c3[nH]c4cc(F)cc5c4c3CCNC5=O)c2)CC1 | 41.8 | 59.7 |  |
| O=C1NCCc2c(-c3ccc(CN4CCN(C(=O)C5CC5)CC4)cc3)[nH]c3cc(F)cc1c23 | 44.1 | 85 |  |
| O=C1NCCc2c(-c3ccc(N4CCNCC4)cc3)[nH]c3cc(F)cc1c23 | 55.8 | 83.9 |  |
| C[C@@H]1CN(Cc2ccc(-c3[nH]c4cc(F)cc5c4c3CCNC5=O)cc2)CCN1C(=O)OC(C)(C)C | 20.3 | 31.2 |  |
| O=C1NCCc2c(-c3ccc(CN4CCN(c5ncccn5)CC4)cc3)[nH]c3cc(F)cc1c23 | 47 | 93.7 | Ratio IC50 [3]: 4.8; IC50 [4]: 0.00571 µM; IC50 [5]: 0.00119 µM |
| Nc1ccc(-c2[nH]c3cc(F)cc4c3c2CCNC4=O)cc1 | 46 | 84.5 |  |
| COc1cccc(-c2[nH]c3cc(F)cc4c3c2CCNC4=O)c1 | 35.9 | 72 |  |
| CC(C)(C)OC(=O)NC1CCN(Cc2ccc(-c3[nH]c4cc(F)cc5c4c3CCNC5=O)cc2)CC1 | 42.4 | 82 | Ratio IC50 [3]: 6.9; IC50 [4]: 0.00804 µM; IC50 [5]: 0.00117 µM |
| O=C(O)c1ccc(-c2[nH]c3cc(F)cc4c3c2CCNC4=O)cc1 | 48.1 | 43.2 |  |
| C[C@@H]1CN(Cc2ccc(-c3[nH]c4cc(F)cc5c4c3CCNC5=O)cc2)CCN1 | 58.8 | 90.4 | IC50 [6]: 16.8 µM; IC50 [7]: 48.2 µM; Activity [10]: Toxic; Activity [11]: Active; inhibition [8]: Active; IC50 [9]: 46.5 µM; IC50 [4]: 0.00291 µM; IC50 [5]: 0.00066 µM |
| Cc1ccc(-c2[nH]c3cc(F)cc4c3c2CCNC4=O)cc1[N+](=O)[O-] | 54.6 | 93.2 |  |
| CCOC(=O)C1CCCN(Cc2ccc(-c3[nH]c4cc(F)cc5c4c3CCNC5=O)cc2)C1 (stereo unspecified) | 36.3 | 86.5 |  |
| NC1CCN(Cc2cccc(-c3[nH]c4cc(F)cc5c4c3CCNC5=O)c2)CC1 | 15.3 | 85.8 | IC50 [6]: 9.46 µM; IC50 [7]: 106 µM; Activity [10]: Non-Toxic; Activity [11]: Active; inhibition [8]: Active; IC50 [9]: 124 µM; IC50 [4]: 0.0619 µM; Activity [12]: Dde; IC50 [5]: 0.00096 µM |
| C[C@@H]1CN(Cc2cccc(-c3[nH]c4cc(F)cc5c4c3CCNC5=O)c2)CCN1C(=O)OC(C)(C)C | 49.4 | 16.3 |  |
| CC1(N)CCN(Cc2ccc(-c3[nH]c4cc(F)cc5c4c3CCNC5=O)cc2)CC1 | 45.2 | 89.9 |  |
| Nc1cccc(-c2[nH]c3cc(F)cc4c3c2CCNC4=O)c1 | 58.9 | 76.3 |  |
| N#Cc1ccc(-c2[nH]c3cc(F)cc4c3c2CCNC4=O)cc1 | 53.4 | 94.1 |  |

| SMILES | inhibition [1] [%] | inhibition [2] [%] | also measured |
| --- | --- | --- | --- |
| O=C1NCCc2c(-c3cccc(CN4CCn5c(nnc5C(F)(F)F)C4)c3)[nH]c3cc(F)cc1c23 | 24.4 | 48.4 |  |
| C[C@@H]1CN(Cc2cccc(-c3[nH]c4cc(F)cc5c4c3CCNC5=O)c2)CCN1 | 50.2 | 78.3 |  |
| CCN(CC)Cc1ccc(-c2[nH]c3cc(F)cc4c3c2CCNC4=O)cc1 | 35.2 | 94 | IC50 [6]: 49.3 µM; IC50 [7]: 75.8 µM; IC50 [9]: 80.6 µM; IC50 [4]: 0.0112 µM; IC50 [5]: 0.00061 µM |
| O=C1NCCc2c(-c3ccc(CN4CCN(C(c5ccccc5)c5ccccc5)CC4)cc3)[nH]c3cc(F)cc1c23 | 36.8 | 26.5 |  |
| CC(C)(C)c1ccc(-c2[nH]c3cc(F)cc4c3c2CCNC4=O)cc1 | 42.3 | 56.2 |  |
| NC1CCCN(Cc2ccc(-c3[nH]c4cc(F)cc5c4c3CCNC5=O)cc2)C1 (stereo unspecified) | 33.5 | 87.9 |  |
| O=C1NCCc2c(-c3cccc(CN4CCC(F)(F)CC4)c3)[nH]c3cc(F)cc1c23 | 24.3 | 38.4 |  |
| CC(=O)N1CCN(Cc2ccc(-c3[nH]c4cc(F)cc5c4c3CCNC5=O)cc2)CC1 | 28.7 | 82.9 | Ratio IC50 [3]: 4.9; IC50 [4]: 0.0064 µM; IC50 [5]: 0.00131 µM |
| CC(C)(C)OC(=O)NC1CCCN(Cc2ccc(-c3[nH]c4cc(F)cc5c4c3CCNC5=O)cc2)C1 (stereo unspecified) | 34.8 | 90.1 |  |
| CC(C)(C)OC(=O)NC1CCCN(Cc2cccc(-c3[nH]c4cc(F)cc5c4c3CCNC5=O)c2)C1 (stereo unspecified) | 43.2 | 55.6 |  |
| CC(C)(C)OC(=O)NC1CCN(Cc2cccc(-c3[nH]c4cc(F)cc5c4c3CCNC5=O)c2)CC1 | 40.7 | 76.5 |  |
| CC(C)N1CCN(Cc2ccc(-c3[nH]c4cc(F)cc5c4c3CCNC5=O)cc2)CC1 | 36.5 | 83.9 |  |
| CC(C)(C)OC(=O)N1CCN(Cc2ccc(-c3[nH]c4cc(F)cc5c4c3CCNC5=O)cc2)CC1 | 33.8 | 74.2 |  |
| CC1(N)CCN(Cc2cccc(-c3[nH]c4cc(F)cc5c4c3CCNC5=O)c2)CC1 | 21.3 | 79.2 |  |
| CC(=O)N1CCN(Cc2cccc(-c3[nH]c4cc(F)cc5c4c3CCNC5=O)c2)CC1 | 30.4 | 49.8 |  |
| COC(=O)c1ccc(-c2[nH]c3cc(F)cc4c3c2CCNC4=O)cc1 | 50.1 | 83.3 |  |
| O=C1NCCc2c(-c3ccc(B(O)O)cc3)[nH]c3cc(F)cc1c23 | 42.7 | 67.4 |  |
| O=Cc1ccc(-c2[nH]c3cc(F)cc4c3c2CCNC4=O)cc1 | 57.8 | 93.6 |  |
| O=C1NCCc2c(-c3ccc(CN4CCN(c5cccc(C(F)(F)F)c5)CC4)cc3)[nH]c3cc(F)cc1c23 | 17.3 | 22.1 |  |
| CN1CCN(Cc2ccc(-c3[nH]c4cc(F)cc5c4c3CCNC5=O)cc2)CC1 | 42 | 83.1 |  |
| O=C1NCCc2c(-c3ccc(CN4CCn5c(nnc5C(F)(F)F)C4)cc3)[nH]c3cc(F)cc1c23 | 23.5 | 69.1 |  |
| O=C1NCCc2c(-c3ccc([N+](=O)[O-])cc3)[nH]c3cc(F)cc1c23 | 55.5 | 88.7 |  |
| O=C1NCCc2c(-c3ccc(CN4CCC(F)(F)CC4)cc3)[nH]c3cc(F)cc1c23 | 18 | 68.8 |  |
| O=C(O)c1cccc(-c2[nH]c3cc(F)cc4c3c2CCNC4=O)c1 | 43.3 | 44.9 |  |
| Cc1cc(N2CCN(Cc3ccc(-c4[nH]c5cc(F)cc6c5c4CCNC6=O)cc3)CC2)n(-c2ccccc2)n1 | 29.7 | 47.2 |  |
| O=C1NCCc2c(-c3ccc(CN4CCCC(F)(F)C4)cc3)[nH]c3cc(F)cc1c23 | 20.5 | 69.3 |  |
| O=C1NCCc2c(-c3ccc(OCc4ccccc4)cc3)[nH]c3cc(F)cc1c23 | 36.4 | 50.6 |  |
